Data set [1] relates to SkBr3 (Her2 overexpressing breast cancer cells). Kind of data set: Anti-proliferation activity against SkBr3 cells (MTS/PMS). The class given is cell-based. The settings on record: up to 100 μM. In short, it runs like this:
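Viability after 72 h compound treatment (1% DMSO final, 37° C., 5% CO2) measured by MTS/PMS; plating density 2000 cells/well with overnight attachment.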

In data set [2] the test system is Hsp90-dependent client protein phospho-AKT in SKBr3 breast cancer cells. The data set is described as follows: Degradation of phospho-AKT, Western blot in SKBr3 cells. The class given is cell-based. The settings on record: 100 μM. The procedure:
Total protein concentration of each lysate was determined and equal amounts of protein were run in each lane of the gels. For the graphs shown in FIG. 1, the O.D.'s (optical density) of the Western bands for phospho-AKT were measured, as were the O.D.'s for actin probed as controls on the same blots. To obtain the graphed values, all specific O.D.'s (for Hsp90 clients) were normalized to the respective actin O.D.
Inhibition of Hsp90 results in the degradation of Hsp90-dependent clients via ubiquitination of the unfolded client followed by proteasome-mediated hydrolysis. […] Geldanamycin (GDA, 0.5 μM) was used as a positive control for Hsp90 inhibition.
(Immunoblotting shows a protein as a band on a membrane.)

For data set [3], the system named is Hsp90 client protein Her-2 in Skbr3 breast cancer cells. The data set is described as follows: Degradation of Her-2, Western blot in Skbr3 cells. The class given is cell-based. The method, then:
After incubation, the cells were harvested, lysed, and equal amounts of the protein lysates loaded into SDS wells. After electrophoresis, the gel was probed with Her-2 and actin (control) antibodies.

The test system of data set [4] is bovine microvessel endothelial cells (BMECs). The data set is described as follows: Transport across BMEC monolayers in vitro. The class given is in vitro ADME. The method, then:
In this example, BMECs were grown on 0.4 μm polycarbonate membranes in a petri dish coated with rat tail collagen and fibronectin. […] Briefly, each chamber was filled with 3 mL of PBSA and the donor chamber included KU-1/A4 (10 μM). A temperature of 37° C. was maintained with an external circulating water bath and chamber contents were stirred with Teflon coated magnetic stir bars driven by an external console. At various time points (5, 15, 30, 45, and 90 minutes), 100 μL aliquots were removed from the receiver side and replaced with 100 μL of blank PBSA warmed to 37° C. Samples of the donor solution were also taken for analysis. All samples were analyzed for concentration by RP-HPLC analysis using a Shimadzu dual pump HPLC system equipped with an Alltech (C18, 4.6 mm×150 mm) column. The solvent system consisted of H2O (solvent A) and methanol (solvent B). Analytical samples were eluted with 20% solvent B over 10 minutes at a flow rate of 0.90 mL/min and UV detection at 208 nm. […] The integrity of the cell monolayer was tested post experiment by monitoring the permeability of [^14C]-sucrose, a low permeability marker. Radioactive samples were analyzed by liquid scintillation counting.

A value given as a limit tells only on which side of the number the result lay.

For `CO[C@@H]1[C@@H](O)[C@@H](O)[C@H](Oc2ccc3cc(NC(C)=O)c(=O)oc3c2)OC1(C)C` [KU-1/A4, N-(7-((2R,3R,4S,5R)-3,4-dihydroxy-5-methoxy-6,6-dimethyl-tetrahydro-2H-pyran-2-yloxy)-2-oxo-2H-chromen-3-yl)acetamide], in data set [1], the “anti-proliferative effects SkBr3” value was “no anti-proliferative effects”. Moreover, the “degradation of phosphorylated AKT (Hsp90 inhibition)” value in data set [2] is on record as “the most potent novobiocin analogues identified”. Also, the “IC50 (concentration producing 50% degradation of Her-2)” value in data set [3] (24 hours, normalized against actin) was “low micromolar range”. The “concentrations between which a rapid decrease in Her-2 was observed” value in data set [3] (tested at 100 nM, 1 μM and 10 μM) was “between 100 nM and 1 μM”. In addition, the “time until abluminal chamber concentration sufficed for full neuroprotective effects” value in data set [4] (10 μM in donor chamber) is no more than 15 min. Further, the “concentration in the receiving chamber” value in data set [4] (10 μM in donor chamber, 90 minutes) was found to be 1200 nM. For the same compound, the “transport across BMECs” value in data set [4] (10 μM in donor chamber, up to 90 minutes) is “time-dependent linear transport”. The “receiving chamber concentration relative to concentration for 50% neuroprotection” value in data set [4] (90 minutes) was 200 fold.

The values are drawn from US9120774B2 (University of Kansas, priority 2009, dated 2015).
